Data as given in ChEMBL document CHEMBL1140281, “The discovery of a selective, high affinity A(2B) adenosine receptor antagonist for the potential treatment of asthma” (Bioorg Med Chem Lett, 2005).

These molecules were tested against T1, Adenosine receptor A2b (Homo sapiens, UniProt P29275) (assay: Binding affinity for adenosine A2b receptor by using as [3H]ZM-241385 radioligand in membranes from HEK-A2B cells).
T1 sequence (P29275 whole entry): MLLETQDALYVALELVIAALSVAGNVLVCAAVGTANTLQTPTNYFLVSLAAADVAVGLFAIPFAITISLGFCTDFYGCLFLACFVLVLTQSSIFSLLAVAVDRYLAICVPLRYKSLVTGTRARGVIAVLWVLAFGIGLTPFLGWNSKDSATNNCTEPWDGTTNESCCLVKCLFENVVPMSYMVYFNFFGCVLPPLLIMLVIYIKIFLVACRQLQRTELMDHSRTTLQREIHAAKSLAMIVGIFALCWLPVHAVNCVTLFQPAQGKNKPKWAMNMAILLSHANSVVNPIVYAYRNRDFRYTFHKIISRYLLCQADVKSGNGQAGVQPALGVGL

Row | SMILES | Ki [nM]
1 | CCCn1c(=O)c2[nH]c(-c3ccc(OCc4nc(-c5ccc(F)cc5)no4)cc3)nc2n(CCC)c1=O | 215

These molecules were tested against T1, Adenosine receptor A2b (assay: not given).

Row | SMILES | Ki [nM]
2 | CCCn1c(=O)c2[nH]c(-c3ccc(OCc4nc(-c5ccc(F)cc5)no4)cc3)nc2n(CCC)c1=O | 215
3 | CCCn1c(=O)c2nc(-c3ccc(OCc4noc(-c5ccc(C(F)(F)F)cc5)n4)cc3)[nH]c2n(CCC)c1=O | 255
4 | CCCn1c(=O)c2nc(-c3ccc(OCc4nc(-c5ccccc5Cl)no4)cc3)[nH]c2n(CCC)c1=O | 1830
5 | CCCn1c(=O)c2[nH]c(-c3ccc(OCc4noc(-c5ccccc5Cl)n4)cc3)nc2n(CCC)c1=O | 5830
6 | CCCn1c(=O)c2nc(-c3ccc(OCc4noc(-c5ccc(C)cc5)n4)cc3)[nH]c2n(CCC)c1=O | 91
7 | CCCn1c(=O)c2nc(-c3ccc(OCc4nc(-c5ccc(C)cc5)no4)cc3)[nH]c2n(CCC)c1=O | 526
8 | CCCn1c(=O)c2nc(-c3ccc(OCc4noc(-c5cccc(Cl)c5)n4)cc3)[nH]c2n(CCC)c1=O | 2080
9 | CCCn1c(=O)c2nc(-c3ccc(OCc4nc(-c5ccccc5F)no4)cc3)[nH]c2n(CCC)c1=O | > 2000
10 | CCCn1c(=O)c2[nH]c(-c3ccc(OCc4nc(-c5ccc(Cl)cc5)no4)cc3)nc2n(CCC)c1=O | 5170
11 | CCCn1c(=O)c2[nH]c(-c3ccc(OCc4nc(-c5ccccc5OC)no4)cc3)nc2n(CCC)c1=O | 557
12 | CCCn1c(=O)c2nc(-c3ccc(OCc4noc(-c5ccc(Cl)cc5)n4)cc3)[nH]c2n(CCC)c1=O | 3660
13 | CCCn1c(=O)c2[nH]c(-c3ccc(OCc4nc(-c5cccc(C(F)(F)F)c5)no4)cc3)nc2n(CCC)c1=O | 945
14 | CCCn1c(=O)c2nc(-c3ccc(OCc4noc(-c5ccccc5F)n4)cc3)[nH]c2n(CCC)c1=O | 645
15 | CCCn1c(=O)c2nc(-c3ccc(OCc4nc(-c5ccccc5C)no4)cc3)[nH]c2n(CCC)c1=O | 1120
16 | CCCn1c(=O)c2nc(-c3ccc(OCc4nc(-c5cccc(F)c5)no4)cc3)[nH]c2n(CCC)c1=O | 1450
17 | CCCn1c(=O)c2nc(-c3ccc(OCc4nc(-c5cccc(C)c5)no4)cc3)[nH]c2n(CCC)c1=O | > 6670
18 | CCCn1c(=O)c2nc(-c3ccc(OCc4noc(-c5ccccc5C)n4)cc3)[nH]c2n(CCC)c1=O | 438
19 | CCCn1c(=O)c2[nH]c(-c3ccc(OCc4noc(-c5ccc(C#N)cc5)n4)cc3)nc2n(CCC)c1=O | 207
20 | CCCn1c(=O)c2nc(-c3ccc(OCc4nc(-c5ccc(OC)cc5)no4)cc3)[nH]c2n(CCC)c1=O | 2780
21 | CCCn1c(=O)c2nc(-c3ccc(OCc4nc(-c5ccccc5C(F)(F)F)no4)cc3)[nH]c2n(CCC)c1=O | 325
22 | CCCn1c(=O)c2[nH]c(-c3ccc(OCc4noc(-c5ccc(OC)cc5)n4)cc3)nc2n(CCC)c1=O | 250
23 | CCCn1c(=O)c2nc(-c3ccc(OCc4nc(-c5cccc(OC)c5)no4)cc3)[nH]c2n(CCC)c1=O | 1680
24 | CCCn1c(=O)c2[nH]c(-c3ccc(OCc4nc(-c5ccc(C(F)(F)F)cc5)no4)cc3)nc2n(CCC)c1=O | 485
25 | CCCn1c(=O)c2nc(-c3ccc(OCc4noc(-c5cccc(C(F)(F)F)c5)n4)cc3)[nH]c2n(CCC)c1=O | 1010
26 | CCCn1c(=O)c2[nH]c(-c3ccc(OCc4noc(-c5ccccc5OC)n4)cc3)nc2n(CCC)c1=O | 127
27 | CCCn1c(=O)c2[nH]c(-c3ccc(OCc4noc(-c5ccc(F)cc5)n4)cc3)nc2n(CCC)c1=O | 220
28 | CCCn1c(=O)c2[nH]c(-c3ccc(OCc4noc(-c5cccc(F)c5)n4)cc3)nc2n(CCC)c1=O | > 2000
29 | CCCn1c(=O)c2[nH]c(-c3ccc(OCc4noc(-c5cccc(C)c5)n4)cc3)nc2n(CCC)c1=O | 700
30 | CCCn1c(=O)c2nc(-c3ccc(OCc4nc(-c5cccc(Cl)c5)no4)cc3)[nH]c2n(CCC)c1=O | 42
31 | CCCn1c(=O)c2nc(-c3ccc(OCc4nc(-c5ccc(C#N)cc5)no4)cc3)[nH]c2n(CCC)c1=O | 4520

What follows are molecules tested against T2, Adenosine receptor A2a (Homo sapiens, UniProt P29274) (assay: biochemical).
T2 sequence (P29274 whole entry): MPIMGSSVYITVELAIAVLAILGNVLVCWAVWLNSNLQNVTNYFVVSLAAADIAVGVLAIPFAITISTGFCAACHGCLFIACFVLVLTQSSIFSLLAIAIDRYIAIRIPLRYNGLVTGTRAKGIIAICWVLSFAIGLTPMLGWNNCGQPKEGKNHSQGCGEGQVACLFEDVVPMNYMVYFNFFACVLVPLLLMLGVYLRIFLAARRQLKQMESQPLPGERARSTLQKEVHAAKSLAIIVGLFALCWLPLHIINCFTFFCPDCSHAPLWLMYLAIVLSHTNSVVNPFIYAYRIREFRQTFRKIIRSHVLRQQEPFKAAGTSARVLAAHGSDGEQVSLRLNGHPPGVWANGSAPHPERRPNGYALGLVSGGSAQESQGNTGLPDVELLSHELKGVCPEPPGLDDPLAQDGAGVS
Description: Binding affinity for adenosine A2a receptor by using as [3H]ZM-241385 (2 nM) radioligand in membranes from HEK-A2A cells

Row | SMILES | Ki [nM]
32 | CCCn1c(=O)c2[nH]c(-c3ccc(OCc4nc(-c5ccc(F)cc5)no4)cc3)nc2n(CCC)c1=O | > 5000
33 | CCCn1c(=O)c2nc(-c3ccc(OCc4noc(-c5ccc(C(F)(F)F)cc5)n4)cc3)[nH]c2n(CCC)c1=O | 4910
34 | CCCn1c(=O)c2nc(-c3ccc(OCc4nc(-c5ccccc5Cl)no4)cc3)[nH]c2n(CCC)c1=O | > 5000
35 | CCCn1c(=O)c2nc(-c3ccc(OCc4noc(-c5ccc(C)cc5)n4)cc3)[nH]c2n(CCC)c1=O | 1010
36 | CCCn1c(=O)c2nc(-c3ccc(OCc4nc(-c5ccc(C)cc5)no4)cc3)[nH]c2n(CCC)c1=O | > 5000
37 | CCCn1c(=O)c2nc(-c3ccc(OCc4noc(-c5cccc(Cl)c5)n4)cc3)[nH]c2n(CCC)c1=O | > 5000
38 | CCCn1c(=O)c2nc(-c3ccc(OCc4nc(-c5ccccc5F)no4)cc3)[nH]c2n(CCC)c1=O | > 5000
39 | CCCn1c(=O)c2[nH]c(-c3ccc(OCc4nc(-c5ccccc5OC)no4)cc3)nc2n(CCC)c1=O | > 5000
40 | CCCn1c(=O)c2[nH]c(-c3ccc(OCc4nc(-c5cccc(C(F)(F)F)c5)no4)cc3)nc2n(CCC)c1=O | > 5000
41 | CCCn1c(=O)c2nc(-c3ccc(OCc4nc(-c5ccccc5C)no4)cc3)[nH]c2n(CCC)c1=O | > 5000
42 | CCCn1c(=O)c2nc(-c3ccc(OCc4nc(-c5cccc(F)c5)no4)cc3)[nH]c2n(CCC)c1=O | > 5000
43 | CCCn1c(=O)c2nc(-c3ccc(OCc4nc(-c5cccc(C)c5)no4)cc3)[nH]c2n(CCC)c1=O | > 5000
44 | CCCn1c(=O)c2nc(-c3ccc(OCc4noc(-c5ccccc5C)n4)cc3)[nH]c2n(CCC)c1=O | > 15000
45 | CCCn1c(=O)c2[nH]c(-c3ccc(OCc4noc(-c5ccc(C#N)cc5)n4)cc3)nc2n(CCC)c1=O | > 5000
46 | CCCn1c(=O)c2nc(-c3ccc(OCc4nc(-c5ccc(OC)cc5)no4)cc3)[nH]c2n(CCC)c1=O | > 5000
47 | CCCn1c(=O)c2nc(-c3ccc(OCc4nc(-c5ccccc5C(F)(F)F)no4)cc3)[nH]c2n(CCC)c1=O | 3140
48 | CCCn1c(=O)c2nc(-c3ccc(OCc4nc(-c5cccc(OC)c5)no4)cc3)[nH]c2n(CCC)c1=O | > 5000
49 | CCCn1c(=O)c2[nH]c(-c3ccc(OCc4nc(-c5ccc(C(F)(F)F)cc5)no4)cc3)nc2n(CCC)c1=O | > 5000
50 | CCCn1c(=O)c2nc(-c3ccc(OCc4noc(-c5cccc(C(F)(F)F)c5)n4)cc3)[nH]c2n(CCC)c1=O | > 5000
51 | CCCn1c(=O)c2[nH]c(-c3ccc(OCc4noc(-c5ccccc5OC)n4)cc3)nc2n(CCC)c1=O | 2940
52 | CCCn1c(=O)c2[nH]c(-c3ccc(OCc4noc(-c5ccc(F)cc5)n4)cc3)nc2n(CCC)c1=O | > 5000
53 | CCCn1c(=O)c2[nH]c(-c3ccc(OCc4noc(-c5cccc(F)c5)n4)cc3)nc2n(CCC)c1=O | > 5000
54 | CCCn1c(=O)c2nc(-c3ccc(OCc4nc(-c5cccc(Cl)c5)no4)cc3)[nH]c2n(CCC)c1=O | 407
55 | CCCn1c(=O)c2nc(-c3ccc(OCc4nc(-c5ccc(C#N)cc5)no4)cc3)[nH]c2n(CCC)c1=O | > 5000

What follows are molecules tested against T3, Adenosine receptor A1 (Homo sapiens, UniProt P30542) (assay: biochemical).
T3 sequence (P30542 whole entry): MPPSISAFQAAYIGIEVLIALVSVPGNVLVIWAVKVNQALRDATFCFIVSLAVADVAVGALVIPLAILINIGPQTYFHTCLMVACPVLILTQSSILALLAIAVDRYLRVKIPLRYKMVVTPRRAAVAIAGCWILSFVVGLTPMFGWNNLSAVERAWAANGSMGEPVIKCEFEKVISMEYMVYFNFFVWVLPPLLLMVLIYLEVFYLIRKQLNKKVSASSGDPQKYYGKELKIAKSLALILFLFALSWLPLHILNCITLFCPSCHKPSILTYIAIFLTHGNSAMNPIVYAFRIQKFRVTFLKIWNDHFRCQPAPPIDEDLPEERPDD

Row | SMILES | Ki [nM]
56 | CCCn1c(=O)c2[nH]c(-c3ccc(OCc4nc(-c5ccc(F)cc5)no4)cc3)nc2n(CCC)c1=O | 1830
57 | CCCn1c(=O)c2nc(-c3ccc(OCc4noc(-c5ccc(C(F)(F)F)cc5)n4)cc3)[nH]c2n(CCC)c1=O | 5180
58 | CCCn1c(=O)c2nc(-c3ccc(OCc4nc(-c5ccccc5Cl)no4)cc3)[nH]c2n(CCC)c1=O | > 6000
59 | CCCn1c(=O)c2nc(-c3ccc(OCc4noc(-c5ccc(C)cc5)n4)cc3)[nH]c2n(CCC)c1=O | 113
60 | CCCn1c(=O)c2nc(-c3ccc(OCc4nc(-c5ccc(C)cc5)no4)cc3)[nH]c2n(CCC)c1=O | 643
61 | CCCn1c(=O)c2nc(-c3ccc(OCc4noc(-c5cccc(Cl)c5)n4)cc3)[nH]c2n(CCC)c1=O | > 6000
62 | CCCn1c(=O)c2nc(-c3ccc(OCc4nc(-c5ccccc5F)no4)cc3)[nH]c2n(CCC)c1=O | > 6000
63 | CCCn1c(=O)c2[nH]c(-c3ccc(OCc4nc(-c5ccccc5OC)no4)cc3)nc2n(CCC)c1=O | > 6000
64 | CCCn1c(=O)c2[nH]c(-c3ccc(OCc4nc(-c5cccc(C(F)(F)F)c5)no4)cc3)nc2n(CCC)c1=O | > 6000
65 | CCCn1c(=O)c2nc(-c3ccc(OCc4nc(-c5ccccc5C)no4)cc3)[nH]c2n(CCC)c1=O | > 6000
66 | CCCn1c(=O)c2nc(-c3ccc(OCc4nc(-c5cccc(F)c5)no4)cc3)[nH]c2n(CCC)c1=O | 2010
67 | CCCn1c(=O)c2nc(-c3ccc(OCc4nc(-c5cccc(C)c5)no4)cc3)[nH]c2n(CCC)c1=O | > 6000
68 | CCCn1c(=O)c2nc(-c3ccc(OCc4noc(-c5ccccc5C)n4)cc3)[nH]c2n(CCC)c1=O | > 10000
69 | CCCn1c(=O)c2[nH]c(-c3ccc(OCc4noc(-c5ccc(C#N)cc5)n4)cc3)nc2n(CCC)c1=O | 288
70 | CCCn1c(=O)c2nc(-c3ccc(OCc4nc(-c5ccc(OC)cc5)no4)cc3)[nH]c2n(CCC)c1=O | > 6000
71 | CCCn1c(=O)c2nc(-c3ccc(OCc4nc(-c5ccccc5C(F)(F)F)no4)cc3)[nH]c2n(CCC)c1=O | 473
72 | CCCn1c(=O)c2[nH]c(-c3ccc(OCc4noc(-c5ccc(OC)cc5)n4)cc3)nc2n(CCC)c1=O | 2190
73 | CCCn1c(=O)c2nc(-c3ccc(OCc4nc(-c5cccc(OC)c5)no4)cc3)[nH]c2n(CCC)c1=O | > 6000
74 | CCCn1c(=O)c2[nH]c(-c3ccc(OCc4nc(-c5ccc(C(F)(F)F)cc5)no4)cc3)nc2n(CCC)c1=O | 1170
75 | CCCn1c(=O)c2nc(-c3ccc(OCc4noc(-c5cccc(C(F)(F)F)c5)n4)cc3)[nH]c2n(CCC)c1=O | > 6000
76 | CCCn1c(=O)c2[nH]c(-c3ccc(OCc4noc(-c5ccccc5OC)n4)cc3)nc2n(CCC)c1=O | 1160
77 | CCCn1c(=O)c2[nH]c(-c3ccc(OCc4noc(-c5ccc(F)cc5)n4)cc3)nc2n(CCC)c1=O | > 6000
78 | CCCn1c(=O)c2[nH]c(-c3ccc(OCc4noc(-c5cccc(F)c5)n4)cc3)nc2n(CCC)c1=O | > 6000
79 | CCCn1c(=O)c2nc(-c3ccc(OCc4nc(-c5cccc(Cl)c5)no4)cc3)[nH]c2n(CCC)c1=O | 6.4
80 | CCCn1c(=O)c2nc(-c3ccc(OCc4nc(-c5ccc(C#N)cc5)no4)cc3)[nH]c2n(CCC)c1=O | > 6000

Molecular target: T2, Adenosine receptor A2a
Test: biochemical
Remark: another data set of the same source
Description: Binding affinity against Adenosine A2a receptor labeled by [3H]ZM-241385 in membranes prepared from HEK-A2A cells

Row | SMILES | Ki [nM]
81 | CCCn1c(=O)c2[nH]c(-c3ccc(OCc4noc(-c5ccccc5OC)n4)cc3)nc2n(CCC)c1=O | 23

The molecules below were run against T1, Adenosine receptor A2b (assay: Binding affinity against Adenosine A2b receptor labeled by [3H]ZM-241385 in membranes prepared from HEK-A2B cells).

Row | SMILES | Ki [nM]
82 | CCCn1c(=O)c2[nH]c(-c3ccc(OCc4noc(-c5ccccc5OC)n4)cc3)nc2n(CCC)c1=O | 127
